Broadly, the IC50 is the concentration that gives 50% inhibition. For orientation: inhibition means the drop in the measured response relative to a control, in per cent.

In assay [1] the test system is Saccharomyces cerevisiae growth inhibition, permissive control. Kind of assay: yeast lifespan-shortening chemical project counter-assay, dose-response inhibition of growth under permissive conditions (AID 850).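 Note: growth read as optical density after one day of incubation.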
Experiment in assay [2]: as above
The conditions noted are these: Saccharomyces cerevisiae growth inhibition, permissive control, measured here: maximum growth inhibition, stronger effect = higher value.

Activity calls are given as the source filed them. The rule behind the calls is not given here. Bounds are passed on as bounds.

Turning to `O=C1c2ccccc2NC(c2ccc(-c3cccc(Cl)c3)o2)N1O` (stereo not drawn), the IC50 in assay [1] was 47.1 µM. Moreover, in assay [2] (at 50 µM), the inhibition stood at 52.3%.
For `O=C1C(=O)c2c(C(=O)c3ccccc3)coc2-c2ccccc21`, in that order: 10.3 µM and 99.6%.
With `CCCc1cc(C(=O)NC2CCCCC2)no1`, the IC50 in assay [1] was > 100 µM (inactive). Also, the inhibition in assay [2] (at 0.391 µM) was determined as 10.3%.
The matching figures for `S=C(Nc1ccc(Oc2ccccc2)cc1)NC1CCCCCC1`: > 100 µM (inactive) and 19.9%.
For the molecule `Cc1ccc(COc2ccc(Br)cc2/C=N/O)cc1`, the IC50 in assay [1] is > 100 µM (inactive). Besides, the inhibition in assay [2] (at 0.098 µM) is -1.78%.
With `O=C(O)Cc1ccc2sc(-c3ccccc3)nc2c1`, the IC50 in assay [1] was > 100 µM (inactive). Also, the inhibition in assay [2] (at 50 µM) came out at 26.9%.
`C=C(C)COc1ccc(-c2[nH]ncc2-c2ccc(Br)cc2)c(O)c1`: the IC50 in assay [1] was > 100 µM (inactive). Moreover, the inhibition in assay [2] (at 25 µM) is 15.9%.
For `Cc1ccc(C(=O)CSC2=NC(N)=C(C#N)C3(CCCCC3)C2C(N)=O)cc1` (stereo not drawn), the IC50 in assay [1] was > 100 µM (inactive). Further, in assay [2] (at 1.563 µM), the inhibition amounted to 18.2%.
As to `Cc1cc(O)c(/C=N/Nc2cccc(Cl)c2)c(=O)o1`, in assay [1], the IC50 is 26.7 µM. For the same molecule, the inhibition in assay [2] (at 50 µM) amounted to 80.8%.
With `O=C(CCc1ccccc1)NNC(=S)NC(=O)c1ccccc1`, in assay [1], the IC50 was > 100 µM (inactive). Also, the inhibition in assay [2] (at 12.5 µM) was determined as 22.5%.
Regarding `O=C1C2C3C=CC(CO)(O3)C2C(=O)N1c1ccccc1-c1ccccc1` (stereo not drawn), in assay [1], the IC50 was > 100 µM (inactive). Besides, the inhibition in assay [2] (at 6.25 µM) turned out to be 19.9%.
`Cc1ccc(-c2cc(-c3ccccc3C)[nH]n2)c(O)c1`: the IC50 in assay [1] is 22.2 µM. Also, in assay [2] (at 50 µM), the inhibition is 89.4%.
`CN(c1ccc(O)cc1)c1nc(-c2ccccc2)cs1`: the IC50 in assay [1] was > 100 µM (inactive). For the same molecule, in assay [2] (at 0.781 µM), the inhibition was 9.5%.
`O/N=C/c1cc(Cl)ccc1OCc1cccc2ccccc12`: the IC50 in assay [1] was > 100 µM (inactive). In assay [2] (at 0.391 µM), the inhibition amounted to 11.2%.
With `CCCn1c(C)cc(C(=O)COC(=O)c2ccc[nH]c2=O)c1C`, the IC50 in assay [1] is > 100 µM (inactive). Also, in assay [2] (at 50 µM), the inhibition worked out at 17.4%.
With `O=C(O)C1C2C=CC(O2)C1C(=O)NC1CCCc2ccccc21` (stereo not drawn), the IC50 in assay [1] was > 100 µM (inactive). In assay [2] (at 6.25 µM), the inhibition was 10.9%.
In the case of `c1ccc(-c2csc3nnc(SCc4ccc5c(c4)OCO5)n23)cc1`, the IC50 in assay [1] is > 100 µM (inactive). Further, the inhibition in assay [2] (at 0.781 µM) came out at 9.45%.
As for `CCOc1ccc(N/N=C(/C#N)C(N)=O)cc1`, the IC50 in assay [1] was 11 µM. Moreover, the inhibition in assay [2] (at 50 µM) came to 87.7%.
With `COC(=O)CSCc1nc2ccccc2[nH]c1=O`, the IC50 in assay [1] is > 100 µM (inactive). Besides, the inhibition in assay [2] (at 1.563 µM) was determined as 20.2%.
Turning to `c1ccc2c(c1)C(=Nn1cnnc1)c1ccccc1-2`, the IC50 in assay [1] was > 100 µM (inactive). The inhibition in assay [2] (at 0.391 µM) came out at 7.85%.
As to `O=[N+]([O-])c1ccc(CN2CCCCCC2)s1`, the IC50 in assay [1] is > 100 µM (inactive). The inhibition in assay [2] (at 25 µM) amounted to 28.2%.
On to `c1cn2cc(-c3ccc4c(c3)OCO4)nc2s1`, for which the IC50 in assay [1] is > 100 µM (inactive). For the same molecule, in assay [2] (at 50 µM), the inhibition was 27.3%.
For `O=c1cc(C(F)(F)F)[nH]c2c(C(F)(F)F)cccc12`, in that order: 11.2 µM and 97.5%.
Take `Cn1c(N2CCOCC2)c(/C=N/OC(=O)c2ccc(F)cc2)c2ccccc21`: the IC50 in assay [1] was > 100 µM (inactive). The inhibition in assay [2] (at 50 µM) is 19.1%.
The matching figures for `Cc1cccc(C(=O)O/N=C/c2c(N3CCOCC3)n(C)c3ccccc23)c1`: 50.1 µM and 48.1%.
The matching figures for `CCC(=O)c1c(O)n(C2CCCCCC2)c(=O)[nH]c1=O`: 29 µM and 91%.
With `COc1ccc(Br)cc1C1CC(=O)N2CN(C)CSC2=C1C#N` (stereo not drawn), the IC50 in assay [1] is > 100 µM (inactive). Further, the inhibition in assay [2] (at 1.563 µM) came to 17%.
With `CN1C(=O)c2cccc3c(Cl)ccc(c23)C1=O`, the IC50 in assay [1] was > 100 µM (inactive). Besides, the inhibition in assay [2] (at 50 µM) came to 19.1%.
Turning to `Oc1c(CN2CCN(c3ccc(F)cc3)CC2)cc(Cl)c2cccnc12`, in assay [1], the IC50 is 12.2 µM. The inhibition in assay [2] (at 50 µM) was found to be 100%.
For `N/C(Cc1ccc(Cl)cc1Cl)=N\OC(=O)c1cccs1`, the half-maximal inhibitory concentration (IC50) in assay [1] was 0.925 µM. Besides, the inhibition in assay [2] (at 12.5 µM) worked out at 100%.
On to `Cc1ccc(NC(=O)ON=C2CCCC2)cc1`, for which the IC50 in assay [1] is 15.2 µM. In addition, the inhibition in assay [2] (at 50 µM) was 99.4%.
For the molecule `O=Cc1c(Sc2ccccc2)nc2ccccn2c1=O`, the IC50 in assay [1] is > 100 µM (inactive). Moreover, the inhibition in assay [2] (at 12.5 µM) was 2.01%.
In the case of `COc1ccc(OC)c(CCNC(=O)Cn2sc3nc(C)cc(C)c3c2=O)c1`, the IC50 in assay [1] is > 100 µM (inactive). For the same molecule, the inhibition in assay [2] (at 0.391 µM) was 13%.
For `C/C(=N\Nc1ccc(Cl)cc1)c1ccccn1`, in assay [1], the IC50 is 10.1 µM. The inhibition in assay [2] (at 50 µM) is 97.1%.

Values taken from PubChem BioAssay AID850 (SRMLSC, 2007).
